Experimental findings from patent publication US20260325685A1, “Radiopharmaceutical Compositions Targeting Carbonic Anhydrase IX and Uses Thereof” (RayzeBio, Inc., priority 2023, published 2026) are described below.

Each structure is given as a SMILES string.

As a reminder, the Kd is the concentration at which binding is half-saturated.

The target in one test is T1, human CA-XII (Homo sapiens, UniProt O43570).
T1 construct: purchased Creative BioMart CA12-261H
The test is described as follows: Surface Plasmon Resonance (SPR) binding kinetics to recombinant human CA-XII (Biacore 8K, single-cycle kinetics, 1:1 binding model). The settings on record: Chelated Metal: Lu-175, 25° C., pH 7.4, read-out: CAXII KD. A digest of the protocol:
(§1)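 Proteins were captured on streptavidin chips at 1200-1800 RU (CA-IX 180 s, CA-XII 75 s injection). Compound was run at 9 concentrations (100-0.39 nM) in PBS-P+ pH 7.4 with 1% DMSO, 120 s association, 1200 s dissociation, 25° C. Rate constants came from reference- and DMSO-corrected curves.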
(SPR reads the build-up and loss of mass on a sensor chip optically.)

The target in another test is T2, human CA-IX (Homo sapiens, UniProt Q16790).
T2 construct: purchased Acro CA9-H82E3
Description: Surface Plasmon Resonance (SPR) binding kinetics to recombinant human CA-IX (Biacore 8K, single-cycle kinetics, 1:1 binding model). The settings on record: Chelated Metal: Lu-175; SPR, 25° C., pH 7.4; read-out: CAIX KD. Summed up:
as §1

T1 sequence (O43570 25-354): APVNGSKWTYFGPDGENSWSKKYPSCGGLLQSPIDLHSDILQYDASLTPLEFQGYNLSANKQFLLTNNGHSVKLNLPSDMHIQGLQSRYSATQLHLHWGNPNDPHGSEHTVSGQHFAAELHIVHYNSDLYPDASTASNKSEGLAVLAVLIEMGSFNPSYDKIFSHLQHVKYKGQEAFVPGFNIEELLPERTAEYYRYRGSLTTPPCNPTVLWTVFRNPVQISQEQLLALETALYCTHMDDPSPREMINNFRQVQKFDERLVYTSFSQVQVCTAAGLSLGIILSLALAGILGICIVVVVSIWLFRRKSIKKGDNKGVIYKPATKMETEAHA

On to `CC1(c2ccc(C(=O)N[C@@H](CC(=O)N[C@@H](CC(=O)N3CCN(C(=O)CN4CCN(CC(=O)O)CCN(CC(=O)O)CCN(CC(=O)O)CC4)C[C@H]3C(=O)NCCn3cc(C45CC(C(=O)Nc6nnc(S(N)(=O)=O)s6)(C4)C5)nn3)C(=O)O)C(=O)O)cc2)CC1.[Lu+3]` [Compound 109.22], for which the Kd at human CA-XII lay within 2.5 to 10 nM; on human CA-IX, 1 to 2.5 nM.

`NS(=O)(=O)c1nnc(NC(=O)C23CC(c4cn(CCNC(=O)[C@@H]5CN(C(=O)CN6CCN(CC(=O)O)CCN(CC(=O)O)CCN(CC(=O)O)CC6)CCN5C(=O)C[C@H](NC(=O)C[C@H](NC(=O)c5cnc(C6CC6)nc5)C(=O)O)C(=O)O)nn4)(C2)C3)s1.[Lu+3]` [Compound 109.23]: the Kd on human CA-XII is over 10 nM; at human CA-IX, 2.5 to 10 nM.

Turning to `NS(=O)(=O)c1nnc(NC(=O)C23CC(c4cn(CCNC(=O)[C@@H]5CN(C(=O)CN6CCN(CC(=O)O)CCN(CC(=O)O)CCN(CC(=O)O)CC6)CCN5C(=O)C[C@H](NC(=O)C[C@H](NC(=O)c5ccc(C6(C(F)(F)F)CC6)cc5)C(=O)O)C(=O)O)nn4)(C2)C3)s1.[Lu+3]` [Compound 109.24], the Kd at human CA-XII is 2.5 to 10 nM; on human CA-IX, 1 to 2.5 nM.

`NS(=O)(=O)c1nnc(NC(=O)C23CC(c4cn(CCNC(=O)[C@@H]5CN(C(=O)CN6CCN(CC(=O)O)CCN(CC(=O)O)CCN(CC(=O)O)CC6)CCN5C(=O)C[C@H](NC(=O)C[C@H](NC(=O)c5ccc(C6(C(F)(F)F)CC6)cn5)C(=O)O)C(=O)O)nn4)(C2)C3)s1.[Lu+3]` [Compound 109.25]: the results for the Kd at human CA-XII and at human CA-IX were 2.5 to 10 nM and under 1 nM, respectively.

Take `CC(C)(C)c1ccc(C(=O)N[C@@H](CC(=O)N[C@@H](CC(=O)N2CCN(C(=O)CN3CCN(CC(=O)O)CCN(CC(=O)O)CCN(CC(=O)O)CC3)C[C@H]2C(=O)NCCn2cc(C34CC(C(=O)Nc5nnc(S(N)(=O)=O)s5)(C3)C4)nn2)C(=O)O)C(=O)O)cc1.[Lu+3]` [Compound 109.26]: the Kd was 2.5 to 10 nM on human CA-XII and 1 to 2.5 nM at human CA-IX.

For the compound `CC(C)(C)c1ccc(CC(=O)N[C@@H](CC(=O)N[C@@H](CC(=O)N2CCN(C(=O)CN3CCN(CC(=O)O)CCN(CC(=O)O)CCN(CC(=O)O)CC3)C[C@H]2C(=O)NCCn2cc(C34CC(C(=O)Nc5nnc(S(N)(=O)=O)s5)(C3)C4)nn2)C(=O)O)C(=O)O)cc1.[Lu+3]` [Compound 109.27], the results for the Kd at human CA-XII and at human CA-IX were 2.5 to 10 nM and 1 to 2.5 nM, respectively.

`NS(=O)(=O)c1nnc(NC(=O)C23CC(c4cn(CCNC(=O)[C@@H]5CN(C(=O)CN6CCN(CC(=O)O)CCN(CC(=O)O)CCN(CC(=O)O)CC6)CCN5C(=O)C[C@H](NC(=O)C[C@H](NC(=O)c5n[nH]nc5C(F)(F)F)C(=O)O)C(=O)O)nn4)(C2)C3)s1.[Lu+3]` [Compound 109.28]: the Kd on human CA-XII was 1 to 2.5 nM; at human CA-IX, under 1 nM.

Consider `NS(=O)(=O)c1nnc(NC(=O)C23CC(c4cn(CCNC(=O)[C@@H]5CN(C(=O)CN6CCN(CC(=O)O)CCN(CC(=O)O)CCN(CC(=O)O)CC6)CCN5C(=O)C[C@H](NC(=O)C[C@H](NCC5CC5)C(=O)O)C(=O)O)nn4)(C2)C3)s1.[Lu+3]` [Compound 109.29], for which the figures for the Kd at human CA-XII and on human CA-IX were over 10 nM and 2.5 to 10 nM, respectively.

Take `Cc1cc(C2CC2)ccc1C(=O)N[C@@H](CC(=O)N[C@@H](CC(=O)N1CCN(C(=O)CN2CCN(CC(=O)O)CCN(CC(=O)O)CCN(CC(=O)O)CC2)C[C@H]1C(=O)NCCn1cc(C23CC(C(=O)Nc4nnc(S(N)(=O)=O)s4)(C2)C3)nn1)C(=O)O)C(=O)O.[Lu+3]` [Compound 109.30]: the values for the Kd at human CA-XII and at human CA-IX were 2.5 to 10 nM and under 1 nM, respectively.

Turning to `NS(=O)(=O)c1nnc(NC(=O)C23CC(c4cn(CCNC(=O)[C@@H]5CN(C(=O)CN6CCN(CC(=O)O)CCN(CC(=O)O)CCN(CC(=O)O)CC6)CCN5C(=O)C[C@H](NC(=O)C[C@H](NC(=O)c5n[nH]c6ccc(O)cc56)C(=O)O)C(=O)O)nn4)(C2)C3)s1.[Lu+3]` [Compound 109.31], the dissociation constant Kd at human CA-XII was 2.5 to 10 nM; at human CA-IX, under 1 nM.

Turning to `NS(=O)(=O)c1nnc(NC(=O)C23CC(c4cn(CCNC(=O)[C@@H]5CN(C(=O)CN6CCN(CC(=O)O)CCN(CC(=O)O)CCN(CC(=O)O)CC6)CCN5C(=O)C[C@H](NC(=O)C[C@H](NC(=O)Cc5n[nH]c6ccc(O)cc56)C(=O)O)C(=O)O)nn4)(C2)C3)s1.[Lu+3]` [Compound 109.32], the values for the Kd at human CA-XII and at human CA-IX were over 10 nM and under 1 nM, respectively.

With `CC(CCC(=O)N[C@@H](CC(=O)N[C@@H](CC(=O)N1CCN(C(=O)CN2CCN(CC(=O)O)CCN(CC(=O)O)CCN(CC(=O)O)CC2)C[C@H]1C(=O)NCCn1cc(C23CC(C(=O)Nc4nnc(S(N)(=O)=O)s4)(C2)C3)nn1)C(=O)O)C(=O)O)(c1ccccc1)c1ccc(O)cc1.[Lu+3]` (some centres unmarked) [Compound 109.33], the dissociation constant (Kd) at human CA-XII is over 10 nM; at human CA-IX it was 1 to 2.5 nM.

Take `NS(=O)(=O)c1nnc(NC(=O)C23CC(c4cn(CCNC(=O)[C@@H]5CN(C(=O)CN6CCN(CC(=O)O)CCN(CC(=O)O)CCN(CC(=O)O)CC6)CCN5C(=O)C[C@H](NC(=O)C[C@H](NC(=O)Cn5nc(-c6ccc(O)cc6)c6ccc(O)cc65)C(=O)O)C(=O)O)nn4)(C2)C3)s1.[Lu+3]` [Compound 109.34]: the Kd on human CA-XII was 2.5 to 10 nM; on human CA-IX, under 1 nM.

Turning to `NS(=O)(=O)c1nnc(NC(=O)C23CC(c4cn(CCNC(=O)[C@@H]5CN(C(=O)CN6CCN(CC(=O)O)CCN(CC(=O)O)CCN(CC(=O)O)CC6)CCN5C(=O)C[C@H](NC(=O)C[C@H](NC(=O)c5ccc(C(F)(F)F)cc5)C(=O)O)C(=O)O)nn4)(C2)C3)s1.[Lu+3]` [Compound 109.35], the dissociation constant (Kd) at human CA-XII was 2.5 to 10 nM; on human CA-IX, 1 to 2.5 nM.

Turning to `NS(=O)(=O)c1nnc(NC(=O)C23CC(c4cn(CCNC(=O)[C@@H]5CN(C(=O)CN6CCN(CC(=O)O)CCN(CC(=O)O)CCN(CC(=O)O)CC6)CCN5C(=O)C[C@H](NC(=O)C[C@H](NC(=O)CCCc5ccc6c(c5)CCCC6)C(=O)O)C(=O)O)nn4)(C2)C3)s1.[Lu+3]` [Compound 109.36], the results for the Kd at human CA-XII and at human CA-IX were 2.5 to 10 nM and 1 to 2.5 nM, respectively.

In the case of `NS(=O)(=O)c1nnc(NC(=O)C23CC(c4cn(CCNC(=O)[C@@H]5CN(C(=O)CN6CCN(CC(=O)O)CCN(CC(=O)O)CCN(CC(=O)O)CC6)CCN5C(=O)C[C@H](NC(=O)C[C@H](NC(=O)CCCc5ccc(Cl)cc5)C(=O)O)C(=O)O)nn4)(C2)C3)s1.[Lu+3]` [Compound 109.37], the Kd is 2.5 to 10 nM at human CA-XII and under 1 nM at human CA-IX.

On to `NS(=O)(=O)c1nnc(NC(=O)C23CC(c4cn(CCNC(=O)[C@@H]5CN(C(=O)CN6CCN(CC(=O)O)CCN(CC(=O)O)CCN(CC(=O)O)CC6)CCN5C(=O)C[C@H](NC(=O)C[C@H](NC(=O)c5ccc(CC6CC6)cc5)C(=O)O)C(=O)O)nn4)(C2)C3)s1.[Lu+3]` [Compound 109.38], for which the Kd on human CA-XII was 2.5 to 10 nM; on human CA-IX, under 1 nM.

Turning to `CC(C)c1ccc(C(=O)N[C@@H](CC(=O)N[C@@H](CC(=O)N2CCN(C(=O)CN3CCN(CC(=O)O)CCN(CC(=O)O)CCN(CC(=O)O)CC3)C[C@H]2C(=O)NCCn2cc(C34CC(C(=O)Nc5nnc(S(N)(=O)=O)s5)(C3)C4)nn2)C(=O)O)C(=O)O)cc1.[Lu+3]` [Compound 109.39], the figures for the Kd on human CA-XII and on human CA-IX were 2.5 to 10 nM and 1 to 2.5 nM, respectively.

In the case of `CC(CCCC(=O)N1CCCC[C@H]1C(=O)N[C@@H](CC(=O)N1CCN(C(=O)CN2CCN(CC(=O)O)CCN(CC(=O)O)CCN(CC(=O)O)CC2)C[C@@H]1C(=O)NCCn1cc(C23CC(C(=O)Nc4nnc(S(N)(=O)=O)s4)(C2)C3)nn1)C(=O)O)(c1ccc(O)cc1)c1ccc(O)cc1.[Lu+3]` [Compound 109.40], the Kd at human CA-XII is over 10 nM; on human CA-IX it was under 1 nM.

As to `NS(=O)(=O)c1nnc(NC(=O)C23CCC(c4cn(CCNC(=O)[C@@H]5CN(C(=O)CN6CCN(CC(=O)O)CCN(CC(=O)O)CCN(CC(=O)O)CC6)CCN5C(=O)CC[C@H](NC(=O)C[C@H](NC(=O)Cc5[nH]nc6ccc(O)cc56)C(=O)O)C(=O)O)nn4)(CC2)CC3)s1.[Lu+3]` [Compound 109.41], the Kd on human CA-XII and at human CA-IX was under 1 nM in each case.

For `NS(=O)(=O)c1nnc(NC(=O)C23CCC(c4cn(CCNC(=O)[C@@H]5CN(C(=O)CN6CCN(CC(=O)O)CCN(CC(=O)O)CCN(CC(=O)O)CC6)CCN5C(=O)CC[C@H](NC(=O)C[C@H](NC(=O)CCCc5ccc(O)cc5)C(=O)O)C(=O)O)nn4)(CC2)CC3)s1.[Lu+3]` [Compound 109.42], the Kd at human CA-XII and on human CA-IX was under 1 nM in each case.

As to `NS(=O)(=O)c1nnc(NC(=O)C23CCC(c4cn(CCNC(=O)[C@@H]5CN(C(=O)CN6CCN(CC(=O)O)CCN(CC(=O)O)CCN(CC(=O)O)CC6)CCN5C(=O)CC[C@H](NC(=O)C[C@H](NC(=O)CCc5ccc(O)cc5)C(=O)O)C(=O)O)nn4)(CC2)CC3)s1.[Lu+3]` [Compound 109.43], the dissociation constant Kd on human CA-XII and at human CA-IX was under 1 nM in each case.

As to `NS(=O)(=O)c1nnc(NC(=O)C23CCC(c4cn(CCNC(=O)[C@@H]5CN(C(=O)CN6CCN(CC(=O)O)CCN(CC(=O)O)CCN(CC(=O)O)CC6)CCN5C(=O)CC[C@H](NC(=O)C[C@H](NC(=O)CCC5CCCCC5)C(=O)O)C(=O)O)nn4)(CC2)CC3)s1.[Lu+3]` [Compound 109.44], the Kd at human CA-XII and at human CA-IX was under 1 nM throughout.

Consider `NS(=O)(=O)c1nnc(NC(=O)C23CCC(c4cn(CCNC(=O)[C@@H]5CN(C(=O)CN6CCN(CC(=O)O)CCN(CC(=O)O)CCN(CC(=O)O)CC6)CCN5C(=O)CC[C@H](NC(=O)C[C@H](NC(=O)c5n[nH]c6ccc(O)cc56)C(=O)O)C(=O)O)nn4)(CC2)CC3)s1.[Lu+3]` [Compound 109.45], for which the Kd on human CA-XII and at human CA-IX was under 1 nM each time.

On to `NS(=O)(=O)c1nnc(NC(=O)C23CCC(c4cn(CCNC(=O)[C@@H]5CN(C(=O)CN6CCN(CC(=O)O)CCN(CC(=O)O)CCN(CC(=O)O)CC6)CCN5C(=O)CC[C@H](NC(=O)C[C@H](NC(=O)CCC5CCCCCC5)C(=O)O)C(=O)O)nn4)(CC2)CC3)s1.[Lu+3]` [Compound 109.46], for which the dissociation constant (Kd) on human CA-XII and at human CA-IX was under 1 nM each time.
